Where a name gives a salt, the structure may show the parent alone.
What follows are compounds tested on Acinetobacter baumannii ATCC17961 (assay: Antimicrobial susceptibility testing: 90% growth inhibitory concentration (IC90) determination). Settings: Acinetobacter baumannii, ATCC17961, 16 h, 90% growth inhibitory concentration, Acinetobacter baumannii ATCC17961, Iso-Sensitest broth, OD 600 nm over 16 h; read-out: ATCC 17961 IC90.
Format: cell-based
Procedure, shortened: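 A. baumannii ATCC17961 at ~5×10^5 CFU/ml in Iso-Sensitest broth exposed to 10-point twofold dilutions (e.g. 50–0.097 μM final), 35±2° C. OD600 read every 20 minutes over 16h; IC50 and IC90 derived from inhibition during logarithmic growth.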
For `COCCn1ncc(-c2ccc(-c3cnc(C(=O)Nc4ccc(C(=O)N5CCN(C(=O)CCCC(=O)N6CC[N+](CC(=O)O)(CC7CNC7)CC6)CC5)c(Cl)c4)n3C)c(F)c2F)c1C` [Example P6, 2-[1-(azetidin-3-ylmethyl)-4-[5-[4-[2-chloro-4-[[5-[2,3-difluoro-4-[1-(2-methoxyethyl)-5-methyl-pyrazol-4-yl]phenyl]-1-methyl-imidazole-2-carbonyl]amino]benzoyl]piperazino]-5-keto-pentanoyl]piperazin-1-ium-1-yl]acetic acid; 1:1 formate], the IC90 was 310 nM.
`COCCn1ncc(-c2ccc(-c3cnc(C(=O)Nc4ccc(C(=O)N5CCN(C(=O)C6CC[N+](C)(C)CC6)CC5)c(Cl)c4)n3C)c(F)n2)c1C` [Example F57, N-[3-chloro-4-[4-(1,1-dimethylpiperidin-1-ium-4-carbonyl)piperazine-1-carbonyl]phenyl]-5-[2-fluoro-6-[1-(2-methoxyethyl)-5-methyl-pyrazol-4-yl]-3-pyridyl]-1-methyl-imidazole-2-carboxamide; formate] gave an IC90 of 880 nM.
Compound `COCCn1ncc(-c2ccc(-c3cnc(C(=O)Nc4ccc(C(=O)N[C@H]5[C@@H]6CN(C(=O)[C@@H]7C[C@@H](O)C[N+]7(C)C)C[C@@H]65)c(Cl)c4)n3C)c(F)c2F)c1C` [Example D40, N-[3-chloro-4-[[(1S,5R)-3-[(2S,4R)-4-hydroxy-1,1-dimethyl-pyrrolidin-1-ium-2-carbonyl]-3-azabicyclo[3.10]hexan-6-yl]carbamoyl]phenyl]-5-[2,3-difluoro-4-[1-(2-methoxyethyl)-3,5-dimethyl-pyrazol-4-yl]phenyl]-1-methyl-imidazole-2-carboxamide; formate] has an IC90 of 77 nM.
`COCCn1nc(C)c(-c2ccc(-c3cnc(C(=O)Nc4ccc(C(=O)N5CCN(C(=O)C6CC[N+](C)(C)CC6)CC5)c(Cl)c4)n3C)c(F)c2F)c1C` [Example A2, N-[3-chloro-4-[4-(1,1-dimethylpiperidin-1-ium-4-carbonyl)piperazine-1-carbonyl]phenyl]-5-[2,3-difluoro-4-[1-(2-methoxyethyl)-3,5-dimethyl-pyrazol-4-yl]phenyl]-1-methyl-imidazole-2-carboxamide; formate] showed an IC90 of 230 nM.
In the case of `Cc1nn(CC(=O)Nc2ncccn2)cc1-c1ccc(-c2cnc(C(=O)Nc3ccc(C(=O)N4CCN(C(=O)C5CC[N+](C)(C)CC5)CC4)c(Cl)c3)n2C)c(F)c1F` [Example G16, N-[3-chloro-4-[4-(1,1-dimethylpiperidin-1-ium-4-carbonyl)piperazine-1-carbonyl]phenyl]-5-[2,3-difluoro-4-[3-methyl-1-[2-oxo-2-(pyrimidin-2-ylamino)ethyl]pyrazol-4-yl]phenyl]-1-methyl-imidazole-2-carboxamide; formate], the IC90 is reported as 1100 nM.
Compound `COCCn1ncc(-c2ccc(-c3cnc(C(=O)Nc4ccc(C(=O)N5CCN(C(=O)C6CC[N+](CC(=O)O)(CC7CNC7)CC6)CC5)c(Cl)c4)n3C)c(C)c2F)c1C` (stereo not shown) [Example B39, 2-[1-(azetidin-3-ylmethyl)-4-[4-[2-chloro-4-[[5-[3-fluoro-4-[1-(2-methoxyethyl)-5-methyl-pyrazol-4-yl]-2-methyl-phenyl]-1-methyl-imidazole-2-carbonyl]amino]benzoyl]piperazine-1-carbonyl]piperidin-1-ium-1-yl]acetic acid; formate] has an IC90 of 250 nM.

Same assay, conditions: Acinetobacter baumannii, ATCC17961, 16 h, read-out: ATCC 17961 IC90
Compound `COCCn1ncc(-c2ccc(-c3cnc(C(=O)Nc4ccc(C(=O)N5CCN(C(=O)[C@H]6CC[N@+](CC(=O)O)(CC7CNC7)CC6)CC5)c(C)c4)n3C)c(C)c2F)c1C` [Example O10, cis 2-[1-(azetidin-3-ylmethyl)-4-[4-[4-[[5-[3-fluoro-4-[1-(2-methoxyethyl)-5-methylpyrazol-4-yl]-2-methylphenyl]-1-methylimidazole-2-carbonyl]amino]-2-methylbenzoyl]piperazine-1-carbonyl]piperidin-1-ium-1-yl]acetic acid; formate] has an IC90 of 231 nM.

From patent US12421211B2, “Heterocyclic compounds” (Hoffmann-La Roche Inc., priority 2021, dated 2025)
